Assay results reported in paper PMC8040043, “Synthesis, Inhibitory Activity, and In Silico Modeling of Selective COX-1 Inhibitors with a Quinazoline Core” (ACS Medicinal Chemistry Letters, 2021).

How the values were obtained:
Ovine COX-1 = target: T1, Ovine COX-1 (Ovis aries, UniProt P05979); experiment: COX-1 in vitro enzymatic assay (PGE2 ELISA); type: biochemical; details: for inhibition at 20 µM: compound at 20 μM; for inhibitory activity in COX assays (in words): less than 50% inhibition on both COX isoforms considered inactive; for selectivity index (COX-2/COX-1): ratio of IC50 COX-2 / IC50 COX-1
T1 construct: purchased Sigma-Aldrich
T1 sequence (P05979 25-600): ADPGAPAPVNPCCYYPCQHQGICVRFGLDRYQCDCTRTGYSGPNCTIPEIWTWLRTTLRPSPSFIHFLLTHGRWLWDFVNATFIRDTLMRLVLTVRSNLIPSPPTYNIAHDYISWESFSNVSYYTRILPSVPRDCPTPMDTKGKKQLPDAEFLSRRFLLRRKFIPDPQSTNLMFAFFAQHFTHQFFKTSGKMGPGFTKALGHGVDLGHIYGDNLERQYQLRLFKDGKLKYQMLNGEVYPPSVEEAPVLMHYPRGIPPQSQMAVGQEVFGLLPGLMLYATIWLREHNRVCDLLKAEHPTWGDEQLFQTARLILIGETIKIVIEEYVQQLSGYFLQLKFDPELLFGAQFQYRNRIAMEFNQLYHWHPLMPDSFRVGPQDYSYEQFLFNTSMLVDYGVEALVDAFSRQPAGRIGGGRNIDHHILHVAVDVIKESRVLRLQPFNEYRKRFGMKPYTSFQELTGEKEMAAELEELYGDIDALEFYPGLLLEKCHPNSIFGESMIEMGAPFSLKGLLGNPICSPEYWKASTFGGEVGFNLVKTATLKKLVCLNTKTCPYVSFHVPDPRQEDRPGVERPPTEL
Protocol: (§1) The inhibitory activity of compounds was tested using in vitro enzymatic assay. Ovine COX-1 (1 unit/reaction) or human recombinant COX-2 (0.5 unit/reaction; both enzymes Sigma-Aldrich, USA) was added to 180 µL of 100 mM Tris buffer (pH 8.0), containing 5 μM porcine hematin, 18 mM L-epinephrine, and 50 μM Na2EDTA. Ten µL of tested compound dissolved in DMSO or pure DMSO (as a blank) were added to the reaction.
(§2) Sigma-Aldrich, USA) was used as a reference inhibitor. After 5 min incubation at room temperature, reaction was initiated by 5 µL of arachidonic acid (10 µM) and incubated 20 min in 37°C. Then the reaction was stopped by 20 µL of formic acid (10% v/v). The concentration of prostaglandin E2 (PGE2) was measured with Prostaglandin E2 ELISA kit (Enzo Life Sciences, USA). Reaction mixture was diluted 1:15 in assay buffer (provided in the kit) and incubated according to the manufacturer instructions.
(§3) The concentration of PGE2 produced during the reaction was estimated according to absorbance […]
(§4) inhibitory activity was calculated as percentual inhibition of PGE2 production compared to blank. At first, the inhibitory activity of compounds was tested at 20 µM to see if there is any activity. IC50 […]
(§5) of COX-2. The level of percentual inhibition was chosen based on the percentual inhibition caused by […]
(§6) All the experiments were carried out in duplicates and repeated at least two times. To test whether increasing substrate concentration influences the activity of […]
(§7) reference compound. The inhibitory activity was calculated as percentual inhibition of PGE2 production compared to blank with respective concentration of AA. […]

human recombinant COX-2 = target: T2, human recombinant COX-2 (Homo sapiens, UniProt P35354); experiment: COX-2 in vitro enzymatic assay (PGE2 ELISA); type: biochemical; details: for inhibition at 20 µM: compound at 20 μM; for inhibition of COX-2 (in words): at 50 μM
T2 construct: purchased Sigma-Aldrich
T2 sequence (P35354 18-604): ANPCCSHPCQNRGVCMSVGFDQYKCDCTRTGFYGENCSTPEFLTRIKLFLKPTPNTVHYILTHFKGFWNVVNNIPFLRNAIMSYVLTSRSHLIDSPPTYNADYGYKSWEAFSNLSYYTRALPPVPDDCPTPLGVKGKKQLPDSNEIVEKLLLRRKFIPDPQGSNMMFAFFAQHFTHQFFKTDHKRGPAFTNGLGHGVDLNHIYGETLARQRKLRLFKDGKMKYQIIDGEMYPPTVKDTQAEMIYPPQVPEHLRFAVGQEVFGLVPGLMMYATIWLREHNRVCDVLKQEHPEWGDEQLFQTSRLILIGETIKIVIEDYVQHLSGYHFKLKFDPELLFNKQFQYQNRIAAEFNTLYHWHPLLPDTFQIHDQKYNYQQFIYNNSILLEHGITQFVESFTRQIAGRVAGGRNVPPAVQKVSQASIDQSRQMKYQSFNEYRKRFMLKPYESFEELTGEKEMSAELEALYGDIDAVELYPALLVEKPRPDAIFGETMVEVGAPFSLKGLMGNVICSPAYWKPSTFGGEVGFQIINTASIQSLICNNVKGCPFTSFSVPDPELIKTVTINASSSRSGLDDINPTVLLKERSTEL
Protocol: as §1, §2, §3, §4, §5, §6, §7

| inhibition at 20 µM (Ovine COX-1) | inhibition at 20 µM (human recombinant COX-2) | SMILES | further results |
| --- | --- | --- | --- |
| 82.2% | 27.5% | Cc1ccc(Nc2nc(/C=C/c3ccccc3)nc3cc(Br)ccc23)cc1 [8a] | IC50 (human recombinant COX-2): > 50 µM |
| 26.6% | 27.6% | COc1ccc(CNc2nc(Cl)nc3cc(-c4ccc(F)cc4)ccc23)cc1 [6b] | – |
| 14.8% | -5.36% | COc1ccc(CNc2nc(N3CCOCC3)nc3cc(-c4cccs4)ccc23)cc1 [7i] | inhibitory activity in COX assays (in words) (Ovine COX-1): inactive |
| 48.8% | 22.7% | COc1ccc(CNc2nc(Cl)nc3cc(Br)ccc23)cc1 [5a] | – |
| -3.35% | 0.8% | COc1ccc(CNc2nc(N3CCOCC3)nc3cc(-c4ccc(OC)cc4)ccc23)cc1 [7a] | – |
| 18% | 14.6% | CCN(CC)c1nc(NCc2ccc(F)c(F)c2)c2ccc(-c3ccc(OC)cc3)cc2n1 [7n] | – |
| 24.9% | 12.6% | Fc1cc(F)c(Nc2nc(/C=C/c3ccccc3)nc3ccccc23)c(F)c1 [3q] | – |
| 84.7% | 21.5% | Fc1ccc(CNc2nc(/C=C/c3ccccc3)nc3cc(Br)ccc23)cc1F [8b] | IC50 (Ovine COX-1): 1.58 ± 0.89 µM; selectivity index (COX-2/COX-1) (Ovine COX-1): COX-1-selective; IC50 (human recombinant COX-2): > 50 µM |
| 50.5% | -38.7% | Cc1ccc(Nc2nc(/C=C/c3ccccc3)nc3ccccc23)cc1C [3a] | – |
| 38% | -22.9% | Cc1cc(C)c(Nc2nc(/C=C/c3ccccc3)nc3ccccc23)c(C)c1 [3p] | – |
| 95.2% | 3.54% | Cc1ccc(Nc2nc(/C=C/c3ccccc3)nc3ccccc23)cc1 [3b] | IC50 (human recombinant COX-2): 43 ± 10.3 µM |
| 32.1% | 3.22% | COc1ccc(CNc2nc(N3CCCC3)nc3cc(-c4ccc(F)cc4)ccc23)cc1 [7f] | – |
| 30.4% | 30.6% | Fc1ccc(CNc2nc(Cl)nc3cc(Br)ccc23)cc1F [5b] | – |
| 13.7% | -24.4% | O=[N+]([O-])c1ccc(Nc2nc(/C=C/c3ccccc3)nc3ccccc23)cc1 [3g] | – |
| 30.6% | -1.77% | Cc1cc(F)cc(Br)c1Nc1nc(/C=C/c2ccccc2)nc2ccccc12 [3r] | – |
| 6.66% | 7.98% | COc1ccc(-c2ccc3c(NCc4ccc(F)c(F)c4)nc(N4CCOCC4)nc3c2)cc1 [7k] | – |
| -10.9% | -1.39% | CCN(CC)c1nc(NCc2ccc(OC)cc2)c2ccc(-c3ccc(OC)cc3)cc2n1 [7d] | – |
| 66% | -3.62% | Fc1ccc(CNc2nc(N3CCOCC3)nc3cc(-c4cccs4)ccc23)cc1F [7o] | IC50 (human recombinant COX-2): > 50 µM; inhibition of COX-2 (in words) (human recombinant COX-2): did not inhibit |
| -38.1% | -2.17% | COc1ccc(CNc2nc(N3CCCC3)nc3cc(-c4cccs4)ccc23)cc1 [7j] | inhibitory activity in COX assays (in words) (Ovine COX-1): inactive |
| 17.7% | -11.1% | C(=C\c1nc(Nc2ccccn2)c2ccccc2n1)/c1ccccc1 [3i] | – |
| 94.3% | 3.5% | Nc1ccc(Oc2nc(/C=C/c3ccccc3)nc3ccccc23)cc1 [3v] | IC50 (human recombinant COX-2): > 50 µM; inhibition of COX-2 (in words) (human recombinant COX-2): did not inhibit |
| 16.8% | 16.4% | FC(F)(F)c1ccc(Nc2nc(/C=C/c3ccccc3)nc3ccccc23)cc1 [3u] | – |
| 12.8% | 5.59% | CCCCc1ccc(Nc2nc(/C=C/c3ccccc3)nc3ccccc23)cc1 [3n] | – |

| inhibition at 20 µM (Ovine COX-1) | inhibition at 20 µM (human recombinant COX-2) | SMILES | further results |
| --- | --- | --- | --- |
| 92.4% | 32.3% | COc1ccc(CNc2nc(Cl)nc3cc(-c4cccs4)ccc23)cc1 [6c] | IC50 (human recombinant COX-2): > 50 µM; inhibition of COX-2 (in words) (human recombinant COX-2): did not inhibit |
| -13.9% | -10.1% | COc1ccc(CNc2nc(N3CCNCC3)nc3cc(-c4ccc(F)cc4)ccc23)cc1 [7g] | – |
| 20.8% | 10.8% | FC(F)(F)c1cc(Nc2nc(/C=C/c3ccccc3)nc3ccccc23)cc(C(F)(F)F)c1 [3t] | – |
| -1.12% | 4.43% | CCN(CC)c1nc(NCc2ccc(OC)cc2)c2ccc(-c3ccc(F)cc3)cc2n1 [7h] | – |
| 31.5% | 3.02% | C(=C\c1nc(Nc2cccc3cccnc23)c2ccccc2n1)/c1ccccc1 [3h] | – |
| 41.6% | 13.8% | Cc1cc(Nc2nc(/C=C/c3ccccc3)nc3ccccc23)n[nH]1 [3j] | – |
| 31.2% | -4.94% | C(=C\c1nc(N2CCNCC2)c2ccccc2n1)/c1ccccc1 [3d] | – |
| 31.6% | 26.5% | COc1ccc(-c2ccc3c(NCc4ccc(F)c(F)c4)nc(Cl)nc3c2)cc1 [6d] | – |
| 34.1% | 7.04% | COc1ccc(CNc2nc(Cl)nc3cc(-c4ccc(OC)cc4)ccc23)cc1 [6a] | – |
| 14% | 9.92% | CC(C)(C)c1ccc(Nc2nc(/C=C/c3ccccc3)nc3ccccc23)cc1 [3m] | – |
| -23.6% | 8.82% | COc1ccc(-c2ccc3c(NCc4ccc(F)c(F)c4)nc(N4CCCC4)nc3c2)cc1 [7l] | – |
| 95.3% | 2.64% | COc1ccc(Nc2nc(/C=C/c3ccccc3)nc3ccccc23)cc1 [3c] | IC50 (human recombinant COX-2): 37.3 ± 9.36 µM |
| 27.6% | -14.5% | Fc1ccc(Nc2nc(/C=C/c3ccccc3)nc3ccccc23)cc1F [3f] | – |
| 96.5% | 39.9% | Fc1ccc(CNc2nc(Cl)nc3cc(-c4cccs4)ccc23)cc1F [6e] | IC50 (human recombinant COX-2): > 50 µM; inhibition of COX-2 (in words) (human recombinant COX-2): did not inhibit |
| -6.25% | 11.7% | COc1ccc(-c2ccc3c(NCc4ccc(F)c(F)c4)nc(N4CCNCC4)nc3c2)cc1 [7m] | – |
| 23.1% | -14.1% | COc1cc(Nc2nc(/C=C/c3ccccc3)nc3ccccc23)cc(OC)c1 [3s] | – |
| 7.33% | -4.79% | CCCOc1ccc(Nc2nc(/C=C/c3ccccc3)nc3ccccc23)cc1 [3o] | – |
| 96.8% | 71.8% | Fc1ccc(CNc2nc(/C=C/c3ccccc3)nc3ccccc23)cc1F [3k] | IC50 (Ovine COX-1): 1.9 ± 0.69 µM; selectivity index (COX-2/COX-1) (Ovine COX-1): 5.32; IC50 (human recombinant COX-2): 10.1 ± 1.38 µM |
| 46.2% | 14.9% | COC(=O)CCNc1nc(/C=C/c2ccccc2)nc2ccccc12 [3l] | – |
| 6.91% | 19.4% | COc1ccc(CNc2nc(N3CCCC3)nc3cc(-c4ccc(OC)cc4)ccc23)cc1 [7b] | – |
| 6.76% | -16.3% | CCOC(=O)c1ccc(Nc2nc(/C=C/c3ccccc3)nc3ccccc23)cc1 [3e] | – |
| -5.92% | -7.39% | COc1ccc(CNc2nc(N3CCOCC3)nc3cc(-c4ccc(F)cc4)ccc23)cc1 [7e] | – |
| -16.5% | 24.2% | COc1ccc(CNc2nc(N3CCNCC3)nc3cc(-c4ccc(OC)cc4)ccc23)cc1 [7c] | – |
